Data taken from US11364275B2, “Linear lipopeptide paenipeptins and methods of using the same” (priority 2017, dated 2022).
Where a SMILES comes first, the peptide text is derived from it. [ ]: non-standard residue; d: D form. The star is where a group is joined. Heptanoyl = CCCCCCC(=O)*; Octanoyl = CCCCCCCC(=O)*; Orn = NCCC[C@H](N)C(=O)O; Dab = NCC[C@H](N)C(=O)O

Experiments:
[1] = tested on: Klebsiella pneumoniae ATCC 13883; assay type: cell-based; details: ATCC 13883
rabbit red blood cells = assay: Hemolytic activity; assay type: cell-based; details: for Hemolysis: relative to Triton X-100
Procedure: Hemolytic activity was evaluated using defibrinated rabbit blood in a 96-well plate as described previously. A nonionic surfactant Triton X-100, which is capable of lysing red blood cells (RBCs), was used at 0.1% as a positive control. Briefly, rabbit blood (Hardy Diagnostics, Santa Maria, Calif.) was diluted with phosphate buffered saline (PBS; pH 7.2) at a 1:19 ratio (v/v) and free hemoglobin was removed by washing RBCs and centrifugation four times at 1,000×g at 4° C. for 5 min. Aliquots (50 μL) of washed RBCs were incubated with 150 μL two-fold dilutions of paenipeptin analogues at final concentrations of 16-128 μg/mL at 37° C. for 30 min in a microtiter plate (NBS, Corning Inc.). After incubation, treated RBCs were gently mixed by repeated pipetting. Aliquots (20 μL) of the cell suspension were mixed with 200 μL PBS in a new 96-well plate and centrifuged at 2,204×g for 10 min. The supernatant was transferred to a new 96-well plate for absorbance measurement at 415 nm using a Cell Imaging Multimode Reader (Cytation 3, BioTek; Winooski, Vt.). The percent hemolysis observed after exposure to each paenipeptin analogue was calculated relative to Triton X-100.

[2] = tested on: Enterococcus faecium ATCC 19434; assay type: cell-based; details: ATCC 19434
Procedure: (§2) The minimum inhibitory concentration (MIC) of paenipeptin analogues was determined using the broth microdilution method (Wirker, M. A. Methods for Dilution Antimicrobial Susceptibility Tests for Bacteria that Grow Aerobically: Approved Standard M07-A8; Clinical and Laboratory Standards Institute, Wayne, Pa., 2009). Seven reference strains (Acinetobacter baumannii ATCC 19606, Escherichia coli ATCC 25922, Klebsiella pneumoniae ATCC 13883, Pseudomonas aeruginosa ATCC 27853, Enterococcus faecium ATCC 19434, Staphylococcus aureus ATCC 29213 and methicillin-resistant S. aureus ATCC 43300) were subjected to MIC testing.
(§3) Paenipeptin analogues were two-fold diluted in tryptic soy broth (TSB; Becton Dickinson) and mixed with an equal volume of bacterial suspensions in TSB containing approximately 1.5×10^5 colony-forming units (CFU)/mL in a clear UV-sterilized 96-well microtiter plate (NBS, Corning Inc., Corning, N.Y.). […] The microtiter plate was incubated at 37° C. for 18-20 h.

[3] = tested on: Klebsiella pneumoniae ATCC 13883; assay: MIC of antibiotics with or without paenipeptin analogues (potentiation); assay type: cell-based; details: K. pneumoniae ATCC 13883; for MIC of antibiotic at 0 μg/ml paenipeptin analogue: antibiotic alone
Description: (§1) Gram-negative bacteria, including Acinetobacter and Klebsiella, are intrinsically resistant to the hydrophobic antibiotic rifampicin.

[4] = tested on: Acinetobacter baumannii ATCC 19606; assay: as above; assay type: cell-based; details: A. baumannii ATCC 19606; for Sensitization factor (rifampicin): MIC without / with 4 μg/mL paenipeptin; for MIC of antibiotic at 0 μg/ml paenipeptin analogue: antibiotic alone
Description: as §1

[5] = tested on: Staphylococcus aureus ATCC 29213; assay type: cell-based; details: ATCC 29213
Procedure: as §2, §3

[6] = tested on: Pseudomonas aeruginosa ATCC 27853; assay type: cell-based; details: ATCC 27853
Procedure: as §2, §3

[7] = tested on: Escherichia coli ATCC 25922; assay type: cell-based; details: ATCC 25922
[8] = tested on: methicillin-resistant S. aureus ATCC 43300; assay type: cell-based, Staphylococcus aureus; details: ATCC 43300
[9] = tested on: Acinetobacter baumannii ATCC 19606; assay type: cell-based; details: ATCC 19606

Row | MIC [2] [mg/L] | MIC of rifampicin at 4 μg/mL of paenipeptin analogue [3] | MIC of rifampicin at 2 μg/mL of paenipeptin analogue [4] [μg/ml] | MIC [5] [mg/L] | MIC of antibiotic at 0 μg/ml paenipeptin analogue [3] [μg/ml] | MIC of antibiotic at 0 μg/ml paenipeptin analogue [4] [μg/ml] | Structure (SMILES) | Hemolysis (rabbit red blood cells; 16 μg/mL) [%] | Hemolysis (rabbit red blood cells; 32 μg/mL) [%] | Hemolysis (rabbit red blood cells; 64 μg/mL) [%] | Hemolysis (rabbit red blood cells; 128 μg/mL) [%] | Sensitization factor (rifampicin) [4] | also measured
1 | >32 | 0.0078-0.0156 μg/ml | 0.0625 | >32 | – | – | CCCCCCCC(=O)N[C@@H](CCCN)C(=O)N[C@H](C(=O)N[C@@H](CCCN)C(=O)N[C@H](Cc1ccccc1)C(=O)N[C@@H](CC(C)C)C(=O)N[C@@H](CCCN)C(=O)N[C@@H](C(=O)N[C@@H](CC(C)C)C(=O)N[C@@H](CO)C(N)=O)C(C)C)[C@@H](C)CC [Analogue 11] (Octanoyl-[Orn]I[Orn][dF]L[Orn][dV]LS-NH2) | 0.86 ± 0.72 | 0.44 ± 0.30 | 0.69 ± 0.64 | 1.12 ± 0.47 | 512-1,024 | MIC [1]: >32 mg/L; Sensitization factor (rifampicin) ([3]; MIC without / with 4 μg/mL paenipeptin): 1,024-2,048; MIC of rifampicin at 4 μg/mL of paenipeptin analogue [4]: 0.0156-0.0313 μg/ml
2 | >32 | – | – | ≥32 | – | – | CCCCCCC(=O)N[C@@H](CCN)C(=O)N[C@@H](Cc1ccccc1)C(=O)N[C@@H](CCN)C(=O)N[C@H](Cc1ccccc1)C(=O)N[C@@H](CC(C)C)C(=O)N[C@@H](CCN)C(=O)N[C@@H](C(=O)N[C@@H](CC(C)C)C(=O)N[C@@H](CO)C(N)=O)C(C)C [Analogue 4] (Heptanoyl-[Dab]F[Dab][dF]L[Dab][dV]LS-NH2) | 0.28 ± 1.11 | 0.49 ± 1.22 | 0.60 ± 1.35 | 1.28 ± 1.65 | – | MIC [6]: 2 to 4 mg/L; MIC [7]: 1 to 4 mg/L
3 | – | – | – | – | >32 | 32 | CC[C@H]1OC(=O)[C@H](C)[C@@H](O[C@H]2C[C@@](C)(OC)[C@@H](O)[C@H](C)O2)[C@H](C)[C@@H](O[C@@H]2O[C@H](C)C[C@H](N(C)C)[C@H]2O)[C@](C)(O)C[C@@H](C)C(=O)[C@H](C)[C@@H](O)[C@]1(C)O [Erythromycin, erythromycin, reference compound] | – | – | – | – | – | –
4 | >32 | <0.00098-0.00195 μg/ml | 0.0078 | >32 | – | – | CCCCCCC(=O)N[C@@H](CCN)C(=O)N[C@H](C(=O)N[C@@H](CCN)C(=O)N[C@H](Cc1ccccc1)C(=O)N[C@@H](CC(C)C)C(=O)N[C@@H](CCN)C(=O)N[C@@H](C(=O)N[C@@H](CC(C)C)C(=O)N[C@@H](CO)C(N)=O)C(C)C)[C@@H](C)CC [Analogue 3] (Heptanoyl-[Dab]I[Dab][dF]L[Dab][dV]LS-NH2) | 0.18 ± 0.54 | 0.78 ± 0.30 | 1.18 ± 0.68 | 1.77 ± 0.81 | 4,096 | hemolytic activity (in words) (rabbit red blood cells; 128 μg/mL): little hemolysis; MIC of rifampicin at 2 μg/mL of paenipeptin analogue [3]: 0.0039 μg/ml; MIC [8]: >32 mg/L; MIC [9]: >32 mg/L
5 | – | – | – | – | 32 | >32 | CC1(C)S[C@@H]2[C@H](NC(=O)[C@H](N)c3ccccc3)C(=O)N2[C@H]1C(=O)O [Ampicillin, ampicillin, reference compound] | – | – | – | – | – | –

Row | Structure (SMILES) | MIC [2] [mg/L] | MIC of rifampicin at 4 μg/mL of paenipeptin analogue [3] | MIC of rifampicin at 2 μg/mL of paenipeptin analogue [4] [μg/ml] | MIC [5] [mg/L] | MIC of antibiotic at 0 μg/ml paenipeptin analogue [3] [μg/ml] | MIC of antibiotic at 0 μg/ml paenipeptin analogue [4] [μg/ml] | Hemolysis (rabbit red blood cells; 16 μg/mL) [%] | Hemolysis (rabbit red blood cells; 32 μg/mL) [%] | Hemolysis (rabbit red blood cells; 64 μg/mL) [%] | Hemolysis (rabbit red blood cells; 128 μg/mL) [%] | Sensitization factor (rifampicin) [4] | also measured
6 | CN[C@H](CC(C)C)C(=O)N[C@H]1C(=O)N[C@@H](CC(N)=O)C(=O)N[C@H]2C(=O)N[C@H]3C(=O)N[C@H](C(=O)N[C@H](C(=O)O)c4cc(O)cc(O)c4-c4cc3ccc4O)[C@H](O)c3ccc(c(Cl)c3)Oc3cc2cc(c3O[C@@H]2O[C@H](CO)[C@@H](O)[C@H](O)[C@H]2O[C@H]2C[C@](C)(N)[C@H](O)[C@H](C)O2)Oc2ccc(cc2Cl)[C@H]1O [Vancomycin, vancomycin, reference compound] | – | – | – | – | >32 | >32 | – | – | – | – | – | –
